{
  "source": "patent US20090170899A1",
  "about": "“Stimulators of 5-HT4 receptors and uses thereof” (priority 2004, published 2009)",
  "key": {"[1]": {"test_system": "BrdU-positive cells in the sub-granular zone (SGZ) of the hippocampus", "details": "cited from earlier work"}, "[2]": {"test_system": "DRN 5-HT neurons", "test": "Reversal by acute prucalopride of the inhibition of DRN 5-HT neuron firing rate induced by i.v. SSRIs", "format": "in vivo, rat", "details": "acute intravenous administration", "text": "FIGS. 6A and 6B illustrate the effect of prucalopride on the inhibition of 5-HT neuronal firing rate induced by SSRIs fluxoamine and citalopram.\nIn FIGS. 6A and 6B, the firing activity of the 5-HT neuron is suppressed following the acute intravenous administration of the antidepressant SSRIs fluvoxamine and citalopram. This suppression of the firing activity is due to the activation of the 5-HT1A autoreceptors, subsequent to the increase of the concentration of endogenous 5-HT, following the blockade of the 5-HT reuptake sites."}, "[3]": {"test_system": "DRN 5-HT neurons", "details": "cited from earlier work"}},
  "note": "Read-outs that look alike come from different tables or passages of the source.",
  "data": [
    {"smiles": "CNCCC(Oc1ccc(C(F)(F)F)cc1)c1ccccc1", "note": "(stereo not drawn) [fluoxetine]", "values": [
      {"measurement": "increase of hippocampal neurogenesis", "setting": "[1]; 14-day treatment, Malberg et al., 2000", "result": "+35%"},
      {"measurement": "quickest effect reported on hippocampal neurogenesis", "setting": "[1]; Santarelli et al., 2003", "result": 11, "unit": "days"},
      {"measurement": "activity on hippocampal neurogenesis", "setting": "[1]; at 5 days, Santarelli et al., 2003", "result": "inactive"}
    ]},
    {"smiles": "COCCCC/C(=N\\OCCN)c1ccc(C(F)(F)F)cc1", "note": "[fluvoxamine]", "values": [
      {"measurement": "firing activity of the 5-HT neuron after SSRI", "setting": "[2]", "result": "suppressed"}
    ]},
    {"smiles": "CN1CCN2c3ncccc3Cc3ccccc3C2C1", "note": "(stereo not drawn) [mirtazapine]", "values": [
      {"measurement": "effect on 5-HT neuron firing rate", "setting": "[3]; acute conditions, Haddjeri et al., 1996", "result": "increases"},
      {"measurement": "effect on 5-HT neuron firing rate", "setting": "[3]; after a 2-day treatment, Besson et al., 2000", "result": "no longer present"}
    ]}
  ]
}
